Data as given in patent US20240158446A1, “CYCLIC COMPOUND HAVING SELECTIVE INHIBITORY ACTION ON KRAS OVER HRAS AND NRAS” (CHUGAI SEIYAKU KABUSHIKI KAISHA, priority 2021, published 2024).
pIC50, pKd: −log10 of the molar value.

Legend:
[1] = target: GDP-bound KRAS wild-type protein (Homo sapiens, UniProt P01116); test: Binding to KRAS by surface plasmon resonance (SPR), Single Cycle Kinetics; details: SPR, Single Cycle Kinetics, GDP-bound KRAS wild-type protein; read-out: KRAS KD
[2] = target: GDP-bound NRAS wild-type protein (Homo sapiens, UniProt P01111); test: Binding to NRAS by surface plasmon resonance (SPR), Single Cycle Kinetics; details: SPR, GDP-bound NRAS wild-type protein vs GDP-bound KRAS wild-type protein
[3] = test system: human lung cancer strain NCI-H441;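 note: cell proliferation inhibition after four days measured by CellTiter-Glo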
[4] = target: GDP-bound HRAS wild-type protein (Homo sapiens, UniProt P01112); test: Binding to HRAS by surface plasmon resonance (SPR), Single Cycle Kinetics; details: SPR, GDP-bound HRAS wild-type protein vs GDP-bound KRAS wild-type protein
Sequence of GDP-bound HRAS wild-type protein (P01112 whole entry): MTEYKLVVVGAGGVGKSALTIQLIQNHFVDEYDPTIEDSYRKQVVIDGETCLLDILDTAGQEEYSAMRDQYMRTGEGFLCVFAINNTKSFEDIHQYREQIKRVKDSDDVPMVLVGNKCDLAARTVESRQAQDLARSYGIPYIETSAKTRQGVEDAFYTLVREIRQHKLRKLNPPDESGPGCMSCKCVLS

Sequence of GDP-bound KRAS wild-type protein (P01116 whole entry): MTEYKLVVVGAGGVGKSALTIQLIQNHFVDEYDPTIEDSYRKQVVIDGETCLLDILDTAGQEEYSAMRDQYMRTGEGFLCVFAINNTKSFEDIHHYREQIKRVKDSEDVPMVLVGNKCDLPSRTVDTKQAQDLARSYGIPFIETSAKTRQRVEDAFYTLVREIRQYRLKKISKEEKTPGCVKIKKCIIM
Sequence of GDP-bound NRAS wild-type protein (P01111 whole entry): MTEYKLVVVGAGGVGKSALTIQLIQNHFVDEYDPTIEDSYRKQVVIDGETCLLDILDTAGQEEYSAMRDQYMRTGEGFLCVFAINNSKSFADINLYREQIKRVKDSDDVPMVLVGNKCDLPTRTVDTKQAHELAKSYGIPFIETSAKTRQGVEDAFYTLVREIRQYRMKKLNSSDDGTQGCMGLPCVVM

Row | Compound | pKd [1] | NRAS/KRAS (ratio of KD value for NRAS to KD value for KRAS) [2] | pIC50 [3] | HRAS/KRAS (ratio of KD value for HRAS to KD value for KRAS) [4]
1 | CCO[C@@H]1C[C@H]2C(=O)NC3(CC(C)(C)C3)C(=O)N(C)[C@@H](C3CCCC3)C(=O)N(C)[C@H](C(=O)N(CC)CC)CC(=O)N(C)[C@@H](COC)C(=O)N[C@@H]([C@@H](C)CC)C(=O)N(C)CC(=O)N(C)[C@H]3C/C=C\CCN(C3=O)[C@@H](Cc3ccc(C)cc3)C(=O)N(C)CC(=O)N[C@@H](CCc3ccc(C(F)(F)F)c(OC)c3)C(=O)N2C1 [PP2398] | 9.64 | A (a compound having 10 or more and less than 20 is denoted as A) | 7.94 | A (a compound having 10 or more and less than 20 is denoted as A)
2 | CC[C@H](C)[C@@H]1NC(=O)[C@H](COC)N(C)C(=O)C[C@@H](C(=O)N(CC)CC)N(C)C(=O)[C@H](C2CCCC2)N(C)C(=O)C2(CC(C)(C)C2)NC(=O)[C@@H]2C[C@H](C)CN2C(=O)[C@H](CCc2ccc(C(F)(F)F)c(Cl)c2)NC(=O)CN(C)C(=O)[C@H](Cc2ccc(C)cc2)N2CC/C=C\C[C@@H](C2=O)N(C)C(=O)CN(C)C1=O [PP2399] | 9.51 | AA (a compound having 20 or more is denoted as AA) | 8.11 | A (a compound having 10 or more and less than 20 is denoted as A)
3 | CCO[C@@H]1C[C@H]2C(=O)NC3(CC(C)(C)C3)C(=O)N(C)[C@@H](C3CCCC3)C(=O)N(C)[C@H](C(=O)N(CC)CC)CC(=O)N(C)[C@@H](COC)C(=O)N[C@@H]([C@@H](C)CC)C(=O)N(C)CC(=O)N(C)[C@H]3C/C=C\CCN(C3=O)[C@@H](Cc3ccc(C)cc3)C(=O)N(C)CC(=O)N[C@@H](CCc3ccc(C(F)(F)F)c(Cl)c3)C(=O)N2C1 [PP2400] | 9.70 | A (a compound having 10 or more and less than 20 is denoted as A) | 8.24 | A (a compound having 10 or more and less than 20 is denoted as A)
4 | CCOC[C@H]1C(=O)N[C@@H]([C@@H](C)CC)C(=O)N(C)CC(=O)N(C)[C@H]2C/C=C\CCN(C2=O)[C@@H](Cc2ccc(C)cc2)C(=O)N(C)CC(=O)N[C@@H](CCc2ccc(C(F)(F)F)c(Cl)c2)C(=O)N2C[C@H](OCC)C[C@H]2C(=O)NC2(CC(C)(C)C2)C(=O)N(C)[C@@H](C2CCCC2)C(=O)N(C)[C@H](C(=O)N(C)CC)CC(=O)N1C [PP2401] | 9.92 | A (a compound having 10 or more and less than 20 is denoted as A) | 8.28 | A (a compound having 10 or more and less than 20 is denoted as A)
5 | CCCOC[C@H]1C(=O)N[C@@H]([C@@H](C)CC)C(=O)N(C)CC(=O)N(C)[C@H]2C/C=C\CCN(C2=O)[C@@H](Cc2ccc(C)cc2)C(=O)N(C)CC(=O)N[C@@H](CCc2ccc(C(F)(F)F)c(Cl)c2)C(=O)N2C[C@H](OCC)C[C@H]2C(=O)NC2(CC(C)(C)C2)C(=O)N(C)[C@@H](C2CCCC2)C(=O)N(C)[C@H](C(=O)N(C)C)CC(=O)N1C [PP2402] | 10.04 | A (a compound having 10 or more and less than 20 is denoted as A) | 7.97 | A (a compound having 10 or more and less than 20 is denoted as A)
6 | CCO[C@@H]1C[C@H]2C(=O)NC3(CC(C)(C)C3)C(=O)N(C)[C@@H](C3CCCC3)C(=O)N(C)[C@H](C(=O)N(CC)CC)CC(=O)N(C)[C@@H](COC)C(=O)N[C@@H]([C@@H](C)CC)C(=O)N(C)CC(=O)N(C)[C@H]3C/C=C\CCN(C3=O)[C@@H](Cc3ccc(C)cc3)C(=O)N(C)CC(=O)N[C@@H](CCc3cc(F)c(C(F)(F)F)c(F)c3)C(=O)N2C1 [PP2403] | 9.66 | A (a compound having 10 or more and less than 20 is denoted as A) | 8.14 | A (a compound having 10 or more and less than 20 is denoted as A)
7 | CCOC[C@H]1C(=O)N[C@@H]([C@@H](C)CC)C(=O)N(C)CC(=O)N(C)[C@H]2C/C=C\CCN(C2=O)[C@@H](Cc2ccc(C)cc2)C(=O)N(C)CC(=O)N[C@@H](CCc2cc(F)c(C(F)(F)F)c(F)c2)C(=O)N2C[C@H](OCC)C[C@H]2C(=O)NC2(CC(C)(C)C2)C(=O)N(C)[C@@H](C2CCCC2)C(=O)N(C)[C@H](C(=O)N(C)CC)CC(=O)N1C [PP2404] | 10.05 | A (a compound having 10 or more and less than 20 is denoted as A) | 8.39 | A (a compound having 10 or more and less than 20 is denoted as A)
8 | CCOC[C@H]1C(=O)N[C@@H]([C@@H](C)CC)C(=O)N(C)CC(=O)N(C)[C@H]2C/C=C\CCN(C2=O)[C@@H](Cc2ccc(C)cc2)C(=O)N(C)CC(=O)N[C@@H](CCc2ccc(C(F)(F)F)c(OC)c2)C(=O)N2C[C@@H](C)C[C@H]2C(=O)NC2(CC(C)(C)C2)C(=O)N(C)[C@@H](C2CCCC2)C(=O)N(C)[C@H](C(=O)N(CC)CC)CC(=O)N1C [PP2405] | 9.51 | A (a compound having 10 or more and less than 20 is denoted as A) | 8.07 | A (a compound having 10 or more and less than 20 is denoted as A)
9 | CCOC[C@H]1C(=O)N[C@@H]([C@@H](C)CC)C(=O)N(C)CC(=O)N(C)[C@H]2C/C=C\CCN(C2=O)[C@@H](Cc2ccc(C)cc2)C(=O)N(C)CC(=O)N[C@@H](CCc2ccc(C(F)(F)F)c(OC)c2)C(=O)N2C[C@H](OCC)C[C@H]2C(=O)NC2(CC(C)(C)C2)C(=O)N(C)[C@@H](C2CCCC2)C(=O)N(C)[C@H](C(=O)N(CC)CC)CC(=O)N1C [PP2406] | 9.54 | A (a compound having 10 or more and less than 20 is denoted as A) | 7.67 | A (a compound having 10 or more and less than 20 is denoted as A)
10 | CCOC[C@H]1C(=O)N[C@@H]([C@@H](C)CC)C(=O)N(C)CC(=O)N(C)[C@H]2C/C=C\CCN(C2=O)[C@@H](Cc2ccc(C)cc2)C(=O)N(C)CC(=O)N[C@@H](CCc2cc(F)c(C(F)(F)F)c(F)c2)C(=O)N2C[C@@H](C)C[C@H]2C(=O)NC2(CC(C)(C)C2)C(=O)N(C)[C@@H](C2CCCC2)C(=O)N(C)[C@H](C(=O)N(CC)CC)CC(=O)N1C [PP2407] | 9.30 | A (a compound having 10 or more and less than 20 is denoted as A) | 7.22 | A (a compound having 10 or more and less than 20 is denoted as A)
11 | CCOC[C@H]1C(=O)N[C@@H]([C@@H](C)CC)C(=O)N(C)CC(=O)N(C)[C@H]2C/C=C\CCN(C2=O)[C@@H](Cc2ccc(C)cc2)C(=O)N(C)CC(=O)N[C@@H](CCc2cc(F)c(C(F)(F)F)c(F)c2)C(=O)N2C[C@H](OCC)C[C@H]2C(=O)NC2(CC(C)(C)C2)C(=O)N(C)[C@@H](C2CCCC2)C(=O)N(C)[C@H](C(=O)N(CC)CC)CC(=O)N1C [PP2408] | 9.64 | A (a compound having 10 or more and less than 20 is denoted as A) | 7.67 | A (a compound having 10 or more and less than 20 is denoted as A)
